Assay results as given in patent publication US20240208992A1, “MACROCYCLES AS CFTR MODULATORS” (Idorsia Pharmaceuticals Ltd, priority 2021, published 2024).

Target: human F508del-CFTR (Homo sapiens, UniProt P13569, DEL508-508)
Experiment: F508del-CFTR cell surface expression (corrector activity), DiscoveRx ß-galactosidase complementation chemiluminescence assay in recombinant U2OS cell line;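 note: U2OS cells co-expressing ProLink-tagged F508del-CFTR and a membrane-anchored enzyme acceptor, where more surface CFTR restores β-galactosidase activity measured by chemiluminescence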
Conditions: for EC50: EC50, F508del-CFTR cell surface expression, U2OS cells, 16h compound incubation, geomean values; for Emax: U2OS, in relation to Emax of corrector lumacaftor (=100%), arithmetic mean values

Sequence of human F508del-CFTR (P13569 with tags, fused parts or gaps DEL508-508): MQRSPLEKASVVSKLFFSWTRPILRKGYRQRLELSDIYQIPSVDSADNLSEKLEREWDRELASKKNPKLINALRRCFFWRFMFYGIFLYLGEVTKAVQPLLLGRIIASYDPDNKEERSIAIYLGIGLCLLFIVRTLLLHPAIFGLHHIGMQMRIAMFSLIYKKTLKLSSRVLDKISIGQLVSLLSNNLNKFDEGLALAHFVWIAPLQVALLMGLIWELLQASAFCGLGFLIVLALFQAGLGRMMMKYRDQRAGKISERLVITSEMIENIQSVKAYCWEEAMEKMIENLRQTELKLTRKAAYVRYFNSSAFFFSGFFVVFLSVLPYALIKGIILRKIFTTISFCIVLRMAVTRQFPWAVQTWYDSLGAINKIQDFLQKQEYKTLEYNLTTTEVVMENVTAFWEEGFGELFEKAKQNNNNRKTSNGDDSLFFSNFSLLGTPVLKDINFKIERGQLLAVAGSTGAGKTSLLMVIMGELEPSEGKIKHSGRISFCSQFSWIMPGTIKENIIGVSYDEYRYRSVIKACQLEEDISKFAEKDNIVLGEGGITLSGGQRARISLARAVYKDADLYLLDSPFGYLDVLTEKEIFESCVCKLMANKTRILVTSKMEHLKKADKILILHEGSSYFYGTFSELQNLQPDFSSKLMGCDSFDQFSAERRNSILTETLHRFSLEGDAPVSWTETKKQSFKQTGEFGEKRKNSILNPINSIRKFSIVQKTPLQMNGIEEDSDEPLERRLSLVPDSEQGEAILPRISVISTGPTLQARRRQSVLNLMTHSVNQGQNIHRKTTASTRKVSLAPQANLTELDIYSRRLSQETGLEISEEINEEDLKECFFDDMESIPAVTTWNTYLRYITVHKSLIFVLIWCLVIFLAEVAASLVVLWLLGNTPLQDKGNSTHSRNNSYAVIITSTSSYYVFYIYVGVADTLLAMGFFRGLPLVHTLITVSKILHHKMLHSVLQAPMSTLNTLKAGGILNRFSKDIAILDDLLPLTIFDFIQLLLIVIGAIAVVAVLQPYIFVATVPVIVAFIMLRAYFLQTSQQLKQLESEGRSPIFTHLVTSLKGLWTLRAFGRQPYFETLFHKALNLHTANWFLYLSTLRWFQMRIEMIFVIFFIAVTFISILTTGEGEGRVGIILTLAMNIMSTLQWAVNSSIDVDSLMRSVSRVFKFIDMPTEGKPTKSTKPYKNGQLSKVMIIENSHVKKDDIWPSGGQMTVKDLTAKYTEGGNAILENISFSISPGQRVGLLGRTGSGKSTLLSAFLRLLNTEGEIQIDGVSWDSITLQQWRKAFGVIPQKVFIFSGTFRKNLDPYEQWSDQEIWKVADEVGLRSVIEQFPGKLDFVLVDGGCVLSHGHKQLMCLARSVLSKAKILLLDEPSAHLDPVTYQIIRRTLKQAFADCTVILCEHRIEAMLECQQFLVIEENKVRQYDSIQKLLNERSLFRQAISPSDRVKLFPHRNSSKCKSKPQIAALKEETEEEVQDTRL

| Compound | EC50 [nM] | Emax [%] |
| --- | --- | --- |
| Cc1cc(CCNC(=O)[C@@H]2CC(=O)N(C)[C@@H](CC3CCCC3)C(=O)N(C)C3(CC3)C(=O)N[C@H](Cc3ccccc3)COc3cnc4ccccc4c3C(=O)N2)on1 [Example 432, (3′S,7′S,13′R)-13′-benzyl-7′-(cyclopentylmethyl)-6′,9′-dimethyl-N-(2-(3-methylisoxazol-5-yl)ethyl)-1′,5′,8′,11′-tetraoxo-2′,3′,4′,5′,6′,7′,8′,9′,11′,12′,13′,14′-dodecahydro-1′H-spiro[cyclopropane-1,10′-[1]oxa[4,7,10,14]tetraazacycloheptadecino[17,16-c]quinoline]-3′-carboxamide] | 474 | 413 |
| COc1cccc(CCNC(=O)[C@@H]2CC(=O)N(C)[C@@H](CC(C)C)C(=O)N(C)C3(CC3)C(=O)N[C@H](Cc3ccccc3)COc3cnc4ccccc4c3C(=O)N2)c1 [Example 433, (3′S,7′S,13′R)-13′-benzyl-7′-isobutyl-N-(3-methoxyphenethyl)-6′,9′-dimethyl-1′,5′,8′,11′-tetraoxo-2′,3′,4′,5′,6′,7′,8′,9′,11′,12′,13′,14′-dodecahydro-1′H-spiro[cyclopropane-1,10′-[1]oxa[4,7,10,14]tetraazacycloheptadecino[17,16-c]quinoline]-3′-carboxamide] | 167 | 344 |
| Cc1cc(CCNC(=O)[C@@H]2CC(=O)N(C)[C@@H](CC(C)C)C(=O)N(C)C3(CC3)C(=O)N[C@H](Cc3ccccc3)COc3cnc4ccccc4c3C(=O)N2)on1 [Example 434, (3′S,7′S,13′R)-13′-benzyl-7′-isobutyl-6′,9′-dimethyl-N-(2-(3-methylisoxazol-5-yl)ethyl)-1′,5′,8′,11′-tetraoxo-2′,3′,4′,5′,6′,7′,8′,9′,11′,12′,13′,14′-dodecahydro-1′H-spiro[cyclopropane-1,10′-[1]oxa[4,7,10,14]tetraazacycloheptadecino[17,16-c]quinoline]-3′-carboxamide] | 664 | 327 |
| Cc1cc(CCNC(=O)[C@@H]2CC(=O)N(C)[C@@H](CC3CCCC3)C(=O)N3CCOC[C@@H]3C(=O)N[C@H](Cc3ccccc3)COc3ccc4nc(C)oc4c3C(=O)N2)on1 [Example 435] | 895 | 119 |
| Cc1cc(CCNC(=O)[C@@H]2CC(=O)N(C)[C@@H](CC3CCCC3)C(=O)N3CCCC[C@@H]3C(=O)N[C@H](Cc3ccccc3)COc3ccc4nc(C)oc4c3C(=O)N2)on1 [Example 436, (8S,12S,18aR,21R)-21-benzyl-12-(cyclopentylmethyl)-4,11-dimethyl-N-(2-(3-methylisoxazol-5-yl)ethyl)-6,10,13,19-tetraoxo-6,7,8,9,10,11,12,13,16,17,18,18a,19,20,21,22-hexadecahydro-15H-oxazolo[4′,5′:5,6]benzo[1,2-p]pyrido[2,1-f][1]oxa[4,7,10,14]tetraazacycloheptadecine-8-carboxamide] | 458 | 300 |
| Cc1cc(CCNC(=O)[C@@H]2CC(=O)N(C)[C@@H](CC3CCCC3)C(=O)N3CCCC[C@H]3C(=O)N[C@H](Cc3ccccc3)COc3ccc4nc(C)oc4c3C(=O)N2)on1 [Example 437, (8S,12S,18aS,21R)-21-benzyl-12-(cyclopentylmethyl)-4,11-dimethyl-N-(2-(3-methylisoxazol-5-yl)ethyl)-6,10,13,19-tetraoxo-6,7,8,9,10,11,12,13,16,17,18,18a,19,20,21,22-hexadecahydro-15H-oxazolo[4′,5′:5,6]benzo[1,2-p]pyrido[2,1-f][1]oxa[4,7,10,14]tetraazacycloheptadecine-8-carboxamide] | 844 | 159 |
